From patent publication EP0043274A2, “Antithrombotic treatment” (priority 1980, dated 1982)
“And” between values parts separate entries of the source, which are not always exact repeats. Equal values may be shown once. Read-outs that look alike come from different tables or passages of the source.

How the values were obtained:
[1] = test system: human plasma; format: biochemical
[2] = test system: thrombus formation in the jugular vein; assay: I 125 fibrinogen technique, damaged jugular vein (venous thrombosis), continuous infusion; format: in vivo, rabbits; conditions: for mortality of infused rabbits: continuous infusion; for radioactivity (I 125 fibrinogen) in damaged jugular vein of saline control rabbit relative to treated rabbit / thrombus formation in the jugular vein (conclusion in words): continuous infusion for five hours
Experimental: The anti venous thrombotic effect of sodium bisulfite is evaluated in rabbits by using I ^125 fibrinogen technique as described in an article in "Archives of Surgery" Vol. 104, pg. 152 (1972).
The rabbit was continuously infused with aqueous sodium bisulfite solution at the rate of […]. (5.154 gram per hour) (animal body weight 2.3 kg) for a time of five hours. After 5 hours, the animal was sacrificed and the radioactive fibrinogen accumulated in the damaged jugular vein was determined. The radioactivity on the contra-lateral (undamaged) jugular vein was also determined to serve as a control. Concurrently, another rabbit had experienced the same procedure but received only a standard sodium chloride solution as a control. The rabbit from the normal saline solution has seven times as much radioactivity as his counterpart infused with sodium bisulfite.
Two jugular veins on a normal, healthy rabbit are exposed and one of the veins is systematically damaged by clamping in two longitudinally spaced places. The rabbit is then continuously infused with aqueous sodium formaldehyde bisulfite at the rate of […] (5.154 gram per hour) (animal body weight 2.3 kg). The rabbit is then injected with fibrinogen labeled with I^125. After 5 hours, the damaged jugular vein is evaluated for radioacive count with a Geiger counter.
This iodine 125 evaluation technique is described by Kakkar in Archieves of Surgery, Vol. 104, pg. 152 (1972) and by Kelton, J.G. et al, Journal of Clinical Investigation, Vol. 62, pgs. 892-895, (1978). […] Other rabbits, similarly evaluated, died, apparently because of overdose by the infustion technique.

[3] = test system: rabbit plasma; assay: Blood coagulation tests (PT, PTT, coagulation factors) in vitro; format: biochemical; conditions: for PT and PTT (effect in words): rabbit plasma in vitro, 0.5 mg/ml
Excerpt: The alkali metalbisulfites, sodium and potassium, and ammonium bisulfite are found to prolong PT and PTT in a dose-related fashion.
The Solution I is found to prolong PT and PTT in a dose related fashion. […] The agent is active in inhibiting various coagulation factors, including factors VII, IX, X, XI, and XII.

[4] = target: T1, F XII (Homo sapiens, UniProt P00748); assay: Coagulation factor assay (Biggs): Factor XII; format: biochemical; conditions: for inhibition of coagulation factor XII: in vitro; for F XII (%): U.S.P. grade, control 86
T1 construct: from tissue; host or cells: human plasma
T1 sequence (P00748 20-615): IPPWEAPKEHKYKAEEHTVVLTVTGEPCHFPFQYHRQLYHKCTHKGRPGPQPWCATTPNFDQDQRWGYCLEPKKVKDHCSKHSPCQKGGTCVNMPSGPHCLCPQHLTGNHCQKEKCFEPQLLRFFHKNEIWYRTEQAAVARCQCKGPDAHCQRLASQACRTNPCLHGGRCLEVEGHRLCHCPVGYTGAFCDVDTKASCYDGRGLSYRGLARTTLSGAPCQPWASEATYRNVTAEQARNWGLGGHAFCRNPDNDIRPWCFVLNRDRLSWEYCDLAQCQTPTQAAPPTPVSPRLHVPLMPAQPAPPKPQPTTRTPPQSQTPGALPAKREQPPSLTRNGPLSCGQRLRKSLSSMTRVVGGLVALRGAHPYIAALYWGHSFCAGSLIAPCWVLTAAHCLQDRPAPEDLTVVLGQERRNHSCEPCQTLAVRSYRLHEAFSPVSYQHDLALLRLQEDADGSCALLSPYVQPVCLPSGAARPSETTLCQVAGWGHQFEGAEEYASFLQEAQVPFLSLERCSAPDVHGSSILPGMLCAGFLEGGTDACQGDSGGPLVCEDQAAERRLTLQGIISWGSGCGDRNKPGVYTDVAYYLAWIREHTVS
Experimental: (§1) The effect of U.S.P. grade sodium bisulfite on blood coagulation factors is evaluated by standard procedures (Biggs) and the results are shown in Table III below.
(§2) References for PT, PTT, and assays of all the coagulation factors can be found in a standard textbook, entitled "Human Blood Coagulation, Haemostasis and Thrombosis", edited by Rosemary Biggs, published by Blackwell Scientific Publications, Oxford, England (2nd edition), pages 670-705, 1976.

[5] = test system: human plasma; format: biochemical; remark: listed apart in the source
[6] = target: T2, F IX (Homo sapiens, UniProt P00740); assay: Coagulation factor assay (Biggs): Factor IX; format: biochemical; conditions: for inhibition of coagulation factor IX: in vitro; for Factor IX (%): single experiment, control 50; for F IX (%): U.S.P. grade, control 66
T2 construct: from tissue; host or cells: human plasma
T2 sequence (P00740 47-461): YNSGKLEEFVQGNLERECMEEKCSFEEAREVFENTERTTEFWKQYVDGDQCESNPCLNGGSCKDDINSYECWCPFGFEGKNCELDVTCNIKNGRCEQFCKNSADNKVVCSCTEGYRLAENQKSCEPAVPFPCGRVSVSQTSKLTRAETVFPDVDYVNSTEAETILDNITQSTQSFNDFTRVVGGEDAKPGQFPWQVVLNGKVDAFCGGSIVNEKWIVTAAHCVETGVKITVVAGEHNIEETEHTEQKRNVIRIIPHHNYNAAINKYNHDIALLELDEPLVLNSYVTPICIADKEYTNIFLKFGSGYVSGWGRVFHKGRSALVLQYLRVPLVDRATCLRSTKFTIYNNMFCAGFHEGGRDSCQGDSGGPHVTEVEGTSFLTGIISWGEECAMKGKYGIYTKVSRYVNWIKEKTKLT
Experimental: as §1, §2

[7] = target: T3, F X (Homo sapiens, UniProt P00742); assay: Coagulation factor assay (Biggs): Factor X; format: biochemical; conditions: for inhibition of coagulation factor X: in vitro; for F X (%): U.S.P. grade, control 78
T3 construct: from tissue; host or cells: human plasma
T3 sequence (P00742 41-488): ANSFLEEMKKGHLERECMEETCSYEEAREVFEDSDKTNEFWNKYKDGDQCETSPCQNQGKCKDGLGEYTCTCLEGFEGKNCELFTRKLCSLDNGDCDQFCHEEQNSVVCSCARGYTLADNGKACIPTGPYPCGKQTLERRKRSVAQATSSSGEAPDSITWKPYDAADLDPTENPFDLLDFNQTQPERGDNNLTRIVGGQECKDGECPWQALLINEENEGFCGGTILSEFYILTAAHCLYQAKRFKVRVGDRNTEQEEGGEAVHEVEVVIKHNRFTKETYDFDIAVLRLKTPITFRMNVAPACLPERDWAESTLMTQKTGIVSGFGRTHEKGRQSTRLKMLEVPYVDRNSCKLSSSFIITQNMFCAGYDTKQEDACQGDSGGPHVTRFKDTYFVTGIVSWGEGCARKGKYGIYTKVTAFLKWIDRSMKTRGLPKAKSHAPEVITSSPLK
Experimental: as §1, §2

[8] = target: T4, F VII (Homo sapiens, UniProt P08709); assay: Coagulation factor assay (Biggs): Factor VII; format: biochemical; conditions: for inhibition of coagulation factor VII: in vitro; for F VII (%): U.S.P. grade, control 73
T4 construct: from tissue; host or cells: human plasma
T4 sequence (P08709 61-466): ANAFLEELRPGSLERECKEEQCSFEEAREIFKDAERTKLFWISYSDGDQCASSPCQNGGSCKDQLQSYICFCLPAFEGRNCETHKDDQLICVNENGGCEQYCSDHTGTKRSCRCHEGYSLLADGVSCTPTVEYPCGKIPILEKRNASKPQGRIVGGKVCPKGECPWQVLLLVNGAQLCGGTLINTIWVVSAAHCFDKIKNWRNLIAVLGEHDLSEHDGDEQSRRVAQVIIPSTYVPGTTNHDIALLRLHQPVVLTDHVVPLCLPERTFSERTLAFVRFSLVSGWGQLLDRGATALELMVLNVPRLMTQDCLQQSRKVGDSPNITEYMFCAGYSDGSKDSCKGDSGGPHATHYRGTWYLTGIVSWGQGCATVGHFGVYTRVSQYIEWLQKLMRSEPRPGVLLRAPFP
Experimental: as §1, §2

[9] = target: T5, F XI (Homo sapiens, UniProt P03951); assay: Coagulation factor assay (Biggs): Factor XI; format: biochemical; conditions: for inhibition of coagulation factor XI: in vitro; for F XI (%): U.S.P. grade, control 117
T5 construct: from tissue; host or cells: human plasma
T5 sequence (P03951 19-625): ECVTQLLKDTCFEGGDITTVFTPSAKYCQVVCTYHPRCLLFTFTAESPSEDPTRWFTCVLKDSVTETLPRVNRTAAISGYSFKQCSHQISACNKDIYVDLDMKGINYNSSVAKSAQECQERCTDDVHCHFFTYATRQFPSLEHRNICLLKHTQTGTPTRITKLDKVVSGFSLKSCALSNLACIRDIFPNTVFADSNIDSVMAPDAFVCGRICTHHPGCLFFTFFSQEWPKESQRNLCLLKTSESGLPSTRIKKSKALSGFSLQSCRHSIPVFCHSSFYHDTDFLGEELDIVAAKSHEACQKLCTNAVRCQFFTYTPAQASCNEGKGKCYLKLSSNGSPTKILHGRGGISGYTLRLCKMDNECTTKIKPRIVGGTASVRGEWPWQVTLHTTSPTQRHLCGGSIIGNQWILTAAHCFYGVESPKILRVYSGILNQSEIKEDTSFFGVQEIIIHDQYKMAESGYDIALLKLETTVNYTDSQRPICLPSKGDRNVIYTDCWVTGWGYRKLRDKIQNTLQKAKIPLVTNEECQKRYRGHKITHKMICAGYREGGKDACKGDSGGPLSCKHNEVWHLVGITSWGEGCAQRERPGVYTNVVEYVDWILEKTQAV
Experimental: as §1, §2

C[N+](C)(C)C [Tetramethyl-ammonium bisulfite]
PT sec. [1]: 21.7 s
PT (effect in words) ([1]; in vitro, 0.5 mg/ml): significantly prolong
mortality of infused rabbits [2]: death of the rabbit
PT and PTT (effect in words) [3]: significantly prolong
inhibition of coagulation factor XII [4]: active
PTT (effect in words) ([5]; in vitro, 0.5 mg/ml): significantly prolong
inhibition of coagulation factor IX [6]: active
Factor IX (%) [6]: 12.5%
inhibition of coagulation factor X [7]: active
inhibition of coagulation factor VII [8]: active
inhibition of coagulation factor XI [9]: active

Sodium bisulfite
PT [1]: 22.42 s
PT(seconds) Exp. 1 A [1]: 25.5 s and 22.1 s
PT(seconds) Exp. 2 A [1]: 23.2 s
PT ([1]; 0.01 mg/ml, U.S.P. grade, control 34.67): 33.37 s
PT ([1]; 0.05 mg/ml, U.S.P. grade, control 34.67): 34.00 s
PT ([1]; 0.1 mg/ml, U.S.P. grade, control 34.67): 34.85 s
PT ([1]; 0.5 mg/ml, U.S.P. grade, control 34.67): 42.73 s
PT ([1]; 1.0 mg/ml, U.S.P. grade, control 34.67): 85.33 s
PT ([1]; 5.0 mg/ml, U.S.P. grade, control 34.67): >150 s
PT ([1]; coded agents 0.5mg/ml, […], control 12.92): 23.06 s
PT (effect in words) ([1]; in vitro, 0.5 mg/ml): significantly prolong
mortality of infused rabbits [2]: died
radioactivity (I 125 fibrinogen) in damaged jugular vein of saline control rabbit relative to treated rabbit [2]: seven times
thrombus formation in the jugular vein (conclusion in words) [2]: definite positive effect of decreasing thrombus formation
PT and PTT (effect in words) [3]: significantly prolong
blood coagulation factors ([3]; rabbit plasma, compared with human plasma): not as sensitive
F XII (%) ([4]; 0.01 mg/ml): 94%
F XII (%) ([4]; 0.05 mg/ml): 87%
F XII (%) ([4]; 0.1 mg/ml): 79%
effect on Factor XII ([4]; 0.5 mg per ml): significant inhibitory effect
F XII (%) ([4]; 0.5 mg/ml): 17%
F XII (%) ([4]; 1.0 mg/ml): 3%
F XII (%) ([4]; 5.0 mg/ml): <1%
PTT(seconds) Exp. 1 A [5]: 128.2 s
PTT ([5]; 0.01 mg/ml, U.S.P. grade, control 12.20): 12.33 s
PTT ([5]; 0.05 mg/ml, U.S.P. grade, control 12.20): 12.43 s
PTT ([5]; 0.1 mg/ml, U.S.P. grade, control 12.20): 12.85 s
PTT ([5]; 0.5 mg/ml, U.S.P. grade, control 12.20): 15.43 s
PTT ([5]; 0.5 mg/ml, two different days, control 42.6 / 42.10): 120.35 s
PTT ([5]; 1.0 mg/ml, U.S.P. grade, control 12.20): 22.63 s
PTT ([5]; 5.0 mg/ml, U.S.P. grade, control 12.20): >150 s
PTT(seconds) Exp. 2 A ([5]; Active Agent 0.5/ml, test sequences A and B, control 50.5 (A), 44.5 (B)): 162.6 s and 121.9 s
PTT ([5]; coded agents 0.5mg/ml, […], control 43.38): 114.80 s
PTT (effect in words) ([5]; in vitro, 0.5 mg/ml): significantly prolong
F IX (%) ([6]; 0.01 mg/ml): 60%
F IX (%) ([6]; 0.05 mg/ml): 52%
F IX (%) ([6]; 0.1 mg/ml): 56%
effect on Factor IX ([6]; 0.5 mg per ml): significant inhibitory effect
F IX (%) ([6]; 0.5 mg/ml): 4%
F IX (%) ([6]; 1.0 mg/ml): 3%
F IX (%) ([6]; 5.0 mg/ml): <1%
F X (%) ([7]; 0.01 mg/ml): 73%
F X (%) ([7]; 0.05 mg/ml): 68%
F X (%) ([7]; 0.1 mg/ml): 66%
effect on Factor X ([7]; 0.5 mg per ml): significant inhibitory effect
F X (%) ([7]; 0.5 mg/ml): 31%
F X (%) ([7]; 1.0 mg/ml): 11%
F X (%) ([7]; 5.0 mg/ml): 3%
F VII (%) ([8]; 0.01 mg/ml): 67%
F VII (%) ([8]; 0.05 mg/ml): 57%
F VII (%) ([8]; 0.1 mg/ml): 51%
effect on Factor VII ([8]; 0.5 mg per ml): significant inhibitory effect
F VII (%) ([8]; 0.5 mg/ml): 23%
F VII (%) ([8]; 1.0 mg/ml): 8%
F VII (%) ([8]; 5.0 mg/ml): 1%
F XI (%) ([9]; 0.01 mg/ml): 98%
F XI (%) ([9]; 0.05 mg/ml): 81%
F XI (%) ([9]; 0.1 mg/ml): 58%
effect on Factor XI ([9]; 0.5 mg per ml): significant inhibitory effect
F XI (%) ([9]; 0.5 mg/ml): 27%
F XI (%) ([9]; 1.0 mg/ml): 4%
F XI (%) ([9]; 5.0 mg/ml): <1%

CCN(CC)CC.O=S(O)O [TRIETHYL AMINE BISULFITE, triethyl amine bisulfite]
MEAN LSD (PT) [1]: 21.3 ± 3.0 s
PT (effect in words) [1]: significantly prolong
PT(Sec) […]. 1 [1]: 23.3 s
PT(Sec) […]. 2 [1]: 25.3 s
PT(Sec) […]. 3 [1]: 18.5 s
PT(Sec) […]. 4 [1]: 18.9 s
PT(Sec) […].5 [1]: 20.4 s
radioactivity (I 125 fibrinogen) in damaged jugular vein of saline control rabbit relative to treated rabbit [2]: seven times
thrombus formation in the jugular vein (conclusion in words) [2]: definite positive antithrombotic effect
PT and PTT (effect in words) [3]: significantly prolong
inhibition of coagulation factor XII [4]: active
MEAN LSD (PTT) [5]: 73.1 ± 8.3 s
PTT (effect in words) [5]: significantly prolong
PTT(Sec) […]. 1 [5]: 24.7 s
PTT(Sec) […]. 2 [5]: 86.3 s
PTT(Sec) […]. 3 [5]: 64.2 s
PTT(Sec) […]. 4 [5]: 71.2 s
PTT(Sec) […].5 [5]: 68.9 s
inhibition of coagulation factor IX [6]: active
Factor IX (%) [6]: 14%
inhibition of coagulation factor X [7]: active
inhibition of coagulation factor VII [8]: active
inhibition of coagulation factor XI [9]: active
